Measurements: patent US7829567B2, “Imino-indeno[1,2-c] quinoline derivatives, their preparation processes, and pharmaceutical compositions comprising the same” (Kaohsiung Medical University, priority 2007, dated 2010)
Where two headings read alike, the source gives them in different places.

Experiments:
Format in all cases: cell-based
[1] = tested on: human cervical epithelioid carcinoma (HeLa); assay: In vitro anticancer assay (MTT), HeLa; settings: HeLa cells, 48 hrs, mean ± spread, read-out: Anti-proliferative evaluation IC50, HeLa
Experimental: (§1) The resultant tetrazolium salt was then dissolved by the addition of dimethyl sulfoxide. Color was measured spectrophotometrically in a microtiter plate reader at 570 nm and used as a relative measure of viable cell number. The number of viable cells after treatment was compared to solvent and untreated control cells and used to determine the percent of control growth as (Abtreated/Abcontrol)×100, where Ab represents the mean absorbance (n=3). […] D. Heo et al. […] (+)-camptothecin (CPT) and doxorubicin hydrochloride (Dox) were used for comparison with the compounds according to this invention.

[2] = tested on: oral squamous cell carcinoma (SAS); assay: In vitro anticancer assay (MTT), SAS; settings: SAS cells, 48 hrs, mean ± spread, read-out: Anti-proliferative evaluation IC50, SAS
Experimental: as §1

[3] = tested on: human renal clear cell carcinoma; assay: In vitro anticancer assay (MTT), RCC 768-O; settings: RCC 768-O cells, 48 hrs, mean ± spread, read-out: Anti-proliferative evaluation IC50, RCC 768-O
Experimental: as §1

[4] = tested on: esophageal carcinoma (CE81T); assay: In vitro anticancer assay (MTT), CE81T; settings: CE81T cells, 48 hrs, mean ± spread, read-out: Anti-proliferative evaluation IC50, CE81T
Experimental: as §1

[5] = tested on: hepatocellular carcinoma (SKHep1); assay: In vitro anticancer assay (MTT), SKHep1; settings: 48 hrs, mean ± spread, read-out: Anti-proliferative evaluation IC50, SKHep1
Experimental: as §1

[6] = tested on: human stomach adenocarcinoma (AGS); assay: In vitro anticancer assay (MTT), AGS; settings: AGS cells, 48 hrs, mean ± spread, read-out: Anti-proliferative evaluation IC50, AGS
Experimental: as §1

[7] = Homo sapiens, SK-HEP1, SKHep1 cells

IC50 [1] [µM]	IC50 [2] [µM]	IC50 [3] [µM]	IC50 [4] [µM]	IC50 ([5]; SKHep1 cells) [µM]	IC50 [6] [µM]	IC50 ([1]; Homo sapiens) [µM]	IC50 ([3]; Homo sapiens) [µM]	IC50 [5, 7] [µM]	IC50 ([6]; Homo sapiens) [µM]	SMILES
1.7 ± 0.2	4.4 ± 1.4	2.3 ± 0.6	3.3 ± 1.8	0.9 ± 0.3	> 30	–	–	–	–	ON=C1c2cc(F)ccc2-c2c(N3CCNCC3)nc3ccccc3c21 [Compound 6k]
–	6.1 ± 0.9	–	2.6 ± 0.9	–	–	2.7 ± 1.2	1.2 ± 0.9	3.8 ± 1.3	1.7 ± 0.5	COc1ccc2c(c1)C(=NO)c1c-2c(N2CCNCC2)nc2ccccc12 [Compound 6p, 9-Methoxy-6-(piperazin-1-yl)-11H-indeno[1,2-c]quinolin-11-one oxime]
1.1 ± 0.6	10.7 ± 0.9	7.7 ± 0.4	11.1 ± 8.5	1.7 ± 1.1	6.5 ± 2.6	–	–	–	–	O=C1c2ccccc2-c2c(N3CCNCC3)nc3ccccc3c21 [Compound 5aa]
8.4 ± 1.2	9.5 ± 2.1	> 30	> 30	8.7 ± 2.1	6.8 ± 1.4	–	–	–	–	COc1ccc2c(c1)C(=NO)c1c-2c(OC)nc2ccccc12 [Compound 6e]
5.1 ± 0.6	7.3 ± 1.5	6.3 ± 1.3	3.5 ± 2.7	4.6 ± 1.1	7.6 ± 1.4	–	–	–	–	ON=C1c2ccccc2-c2c(N3CCNCC3)nc3ccccc3c21 [Compound 6i]
8.7 ± 1.8	> 30	10.5 ± 1	> 30	14.9 ± 3.6	11.2 ± 1.5	–	–	–	–	COc1ccc2c(c1)C(=O)c1c-2c(N2CCN(C(=O)CNCCN)CC2)nc2ccccc12 [Compound 5mm]
> 30	> 30	> 30	> 30	> 30	15.5 ± 1.5	–	–	–	–	COc1ccc2c(c1)C(=O)c1c-2c(N2CCN(C(=O)CNCCNCCN)CC2)nc2ccccc12 [Compound 5qq]
–	0.8 ± 0.1	–	–	–	–	0.2 ± 0.02	3.7 ± 0.8	1.2 ± 0.3	10.4 ± 3	COc1ccc2c(c1)C(=NOCCN1CCCC1)c1c-2c(O)nc2ccccc12 [Compound 6bb, 6-hydroxy-9-methoxy-11H-indeno[1,2-c]quinolin-11-one O-2-(pyrrolidin-1-yl)ethyl oxime]
11.7 ± 1.7	17 ± 2.9	11.5 ± 1.8	> 30	16.6 ± 2	8.1 ± 1.1	–	–	–	–	COc1ccc2c(c1)C(=O)c1c-2c(N2CCN(C(=O)CCN(C)C)CC2)nc2ccccc12 [Compound 5yy]
6.6 ± 1.3	8.6 ± 0.9	7.6 ± 0.1	6.6 ± 1.9	11.9 ± 2.5	3.5 ± 1.1	–	–	–	–	COc1ccc2c(c1)C(=O)c1c-2c(N2CCN(C(=O)CNCCNCCO)CC2)nc2ccccc12 [Compound 5rr]
4.7 ± 1.4	7.7 ± 0.9	1.5 ± 1.3	7.2 ± 1.5	4.9 ± 1.1	5.5 ± 0.5	–	–	–	–	COc1ccc2c(c1)C(=O)c1c-2c(N2CCN(C(=O)CCN3CCNCC3)CC2)nc2ccccc12 [Compound 5ggg]
–	2.4 ± 1.2	–	> 30	–	–	0.5 ± 0.2	2 ± 1.9	0.7 ± 0.2	6.8 ± 2	COc1ccc2c(c1)C(=NOCCN(C)C)c1c-2c(N2CCNCC2)nc2ccccc12 [Compound 6r, 9-Methoxy-6-(piperazin-1-yl)-11H-indeno[1,2-c]quinolin-11-one O-2-(dimethylamino)ethyl oxime]
11.8 ± 2.8	> 30	14.1 ± 3.4	> 30	19.2 ± 5.4	8.7 ± 1.2	–	–	–	–	COc1ccc2c(c1)C(=O)c1c-2c(N2CCN(C(=O)CN(C)C)CC2)nc2ccccc12 [Compound 5ll]
4.7 ± 2.3	11.3 ± 0.3	6.7 ± 0.5	9.2 ± 0.8	6.6 ± 0.9	6.5 ± 0.6	–	–	–	–	COc1ccc2c(c1)C(=O)c1c-2c(N2CCN(C(=O)CNCCO)CC2)nc2ccccc12 [Compound 5nn]
–	6.3 ± 0.9	–	6.5 ± 0.6	–	–	0.9 ± 0.4	4.4 ± 1.4	3 ± 2.2	5.9 ± 1.2	COc1ccc2c(c1)C(=NOCCCN)c1c-2c(N2CCNCC2)nc2ccccc12 [Compound 6t, 9-Methoxy-6-(piperazin-1-yl)-11H-indeno[1,2-c]quinolin-11-one O-3-aminopropyl oxime]
–	7.4 ± 0.7	–	0.9 ± 0.3	–	–	4.6 ± 1	6.4 ± 0.2	3.4 ± 1.2	9.6 ± 3.8	CNCC(O)CN1CCN(c2nc3ccccc3c3c2-c2ccc(OC)cc2C3=O)CC1 (stereo not shown) [Compound 5lll, 6-{4-[2-Hydroxy-3-(methylamino)propyl]piperazin-1-yl}-9-methoxy-11H-indeno[1,2-c]quinolin-11-one]
8.2 ± 2.2	19.5 ± 3.2	9.4 ± 0.6	> 30	16 ± 3.8	14.1 ± 2.3	–	–	–	–	COc1ccc2c(c1)C(=O)c1c-2c(N2CCN(C(=O)CNCCN(C)C)CC2)nc2ccccc12 [Compound 5oo]
–	8.8 ± 1	–	7.4 ± 2	–	–	4.8 ± 1.5	7 ± 1.3	5.1 ± 1.5	4.9 ± 1	COc1ccc2c(c1)C(=O)c1c-2c(N2CCN(C(=O)CCNCCN(C)C)CC2)nc2ccccc12 [Compound 5bbb, 6-{4-{3-[2-(Dimethylamino)ethylamino]propanoyl}piperazin-1-yl}-9-methoxy-11H-indeno[1,2-c]quinolin-11-one]
3.6 ± 1.6	7 ± 0.5	5.3 ± 1.8	3 ± 2	5 ± 0.8	7.5 ± 1.1	–	–	–	–	CON=C1c2cc(OC)ccc2-c2c(N3CCN(C(=O)CCN(C)C)CC3)nc3ccccc3c21 [Compound 6m]
> 30	> 30	> 30	> 30	23.5 ± 1.4	10.8 ± 1.9	–	–	–	–	COc1ccc2c(c1)C(=O)c1c-2c(N2CCN(C(=O)CCNCCCN(C)CCCN)CC2)nc2ccccc12 [Compound 5fff]
–	7.3 ± 0.4	–	> 30	–	–	> 30	5.6 ± 1.6	> 30	7.4 ± 1.2	COc1ccc2c(c1)C(=NO)c1c-2c(N2CCN(C(=O)CCNCCN(C)C)CC2)nc2ccccc12 [Compound 6n, 3-[2-(Dimethylamino)ethylamino]-1-{4-[11-(hydroxyimino)-9-methoxy-11H-indeno[1,2-c]quinolin-6-yl]piperazin-1-yl}propan-1-one]
–	4.9 ± 0.6	–	> 30	–	–	0.6 ± 0.3	4.9 ± 0.8	3 ± 2.8	6.8 ± 1.8	COc1ccc2c(c1)C(=NOCCCN(C)C)c1c-2c(N2CCNCC2)nc2ccccc12 [Compound 6s, 9-Methoxy-6-(piperazin-1-yl)-11H-indeno[1,2-c]quinolin-11-one O-3-(dimethylamino)propyl oxime]
0.8 ± 0.2	6.9 ± 1.3	4.1 ± 1.9	> 30	1 ± 0.4	5.8 ± 1.9	–	–	–	–	COc1ccc2c(c1)C(=NOCCN1CCOCC1)c1c-2c(N2CCNCC2)nc2ccccc12 [Compound 6w]
10.6 ± 1.6	> 30	18.5 ± 2.1	> 30	21.9 ± 6.4	9.5 ± 0.3	–	–	–	–	COc1ccc2c(c1)C(=O)c1c-2c(N2CCN(C(=O)CCO)CC2)nc2ccccc12 [Compound 5ww]
–	2.4 ± 1.3	–	2.9 ± 1.7	–	–	0.6 ± 0.2	2.6 ± 0.5	0.7 ± 0.3	4.8 ± 1.3	COc1ccc2c(c1)C(=NOCCN1CCCC1)c1c-2c(N2CCNCC2)nc2ccccc12 [Compound 6u, 9-Methoxy-6-(piperazin-1-yl)-11H-indeno[1,2-c]quinolin-11-one O-2-(pyrrolidin-1-yl)ethyl oxime]
11.5 ± 1.3	19.1 ± 2.2	> 30	4.8 ± 1.6	11.6 ± 7.3	> 30	–	–	–	–	CON=C1c2cc(OC)ccc2-c2c(N3CCN(C(=O)CCNCCN(C)C)CC3)nc3ccccc3c21 [Compound 6o]
–	1.2 ± 0.2	–	–	–	–	0.4 ± 0.02	5.7 ± 1	1.5 ± 0.3	> 30	COc1ccc2c(c1)C(=NOCCN1CCCC1)c1c-2cnc2ccccc12 [Compound 6aa, 9-methoxy-11H-indeno[1,2-c]quinolin-11-one O-2-(pyrrolidin-1-yl)ethyl oxime]

SMILES	IC50 [1] [µM]	IC50 [2] [µM]	IC50 [3] [µM]	IC50 [4] [µM]	IC50 ([5]; SKHep1 cells) [µM]	IC50 [6] [µM]	IC50 ([1]; Homo sapiens) [µM]	IC50 ([3]; Homo sapiens) [µM]	IC50 [5, 7] [µM]	IC50 ([6]; Homo sapiens) [µM]
CC[C@@]1(O)C(=O)OCc2c1cc1n(c2=O)Cc2cc3ccccc3nc2-1 [CPT, (+)-camptothecin, reference compound]	–	6 ± 2.7	–	2.8 ± 1.5	–	–	0.3 ± 0.1	2.8 ± 0.7	0.2 ± 0.1	> 30
COc1ccc2c(c1)C(=NOCC1CO1)c1c-2c(N2CCN(CC3CO3)CC2)nc2ccccc12 (stereo not shown) [Compound 6y]	0.5 ± 0.2	6.2 ± 0.9	8.8 ± 2.2	2 ± 1.2	1 ± 0.5	8.8 ± 4.1	–	–	–	–
